Patent publication EP4563149A1, “LURBINECTEDIN, ECUBECTEDIN AND A RELATED COMPOUND FOR USE IN THE TREATMENT OF SKIN CANCERS” (Pharma Mar, S.A., priority 2023, dated 2025)
Read-outs that look alike come from different tables or passages of the source.

Legend:
melanoma cells 501mel = assay: Cell cycle analysis by flow cytometry (PI); format: cell-based, human; conditions: IC50 concentrations
Method: For cell cycle analysis, 2×10^6 cells were seeded in 6 well plates. […] After 2 washes with cold PBS, cells were incubated with RNAse A and PI for 1h in the dark, before being analyzed on a BD LSRFortessaTM Flow Cytometer. Data were analysed with FlowJo software.

[1] = tested on: melanoma cell cultures or cell lines; assay: Clonogenic assay; format: cell-based, human; conditions: 48h at IC50 concentrations, then 10 days without drug
Method: Based on the cell viability assays conducted above, the efficacy of lurbinectedin, PM14 or Compound IA on melanoma cell proliferation was investigated. Initially, a clonogenic assay was performed. Cells were drug-treated at IC50 concentrations during 48h before seeding 1×10^3 or 2×10^3 cells in 6-well plates without drug, wherein they grew for 10 days to allow for colony formation. Afterwards, cells were fixed for 10min with 4% formaldehyde solution, washed once with PBS and stained with Crystal Violet solution 0.2% for 15 min. The wells were finally washed twice with deionized water, air dried, scanned and analyzed with Fiji software to count the number of colonies.

501mel = assay: Cell viability assay (PrestoBlue), 72h; conditions: Homo sapiens
Method: (§8) Cells were grown at 37°C in 5% CO2 (10% for Hermes 3A) and were regularly checked for mycoplasma contamination. […] Melanoma cell lines 501mel and SKmel28 were grown in RPMI w/o HEPES (Gibco, Invitrogen) supplemented with 10% FCS and gentamycin. Vemurafenib-resistant cells (501melVemuR and MM074VemuR) were additionally supplemented with 1.5 µM of vemurafenib. Melanoma IGR cell lines (IGR37 and IGR39) were grown in RPMI w/o HEPES (Gibco, Invitrogen) supplemented with 15% FCS and gentamycin.
(§9) To determine the IC50 (half maximal inhibitory concentration) of these cells to various inhibitors, cell viability assays were performed.
(§10) After 72h of treatment with different concentrations of the compounds, cells were treated with PrestoBlue reagent according to the manufacturer's instructions. The absorbance per well was measured with a Cellinsight CX5 microplate reader. Data were analyzed using Prism9 statistical software.

MM074 = assay: Cell viability assay (PrestoBlue), 72h; conditions: Homo sapiens
Method: as §8, §9, §10

[2] = tested on: Sk-mel-28 melanoma xenografts; conditions: 1.2 mg/kg intravenous
Method: (§1) Female athymic nu/nu mice (Harlan Laboratories Models, S.L. Barcelona, Spain or Envigo, Spain) were utilized for all experiments. Animal were housed in individually ventilated cages Sealsafe® Plus, Techmplast S.P.A.), up to ten per cage on a 12-hour light-dark cycle at 21-23 °C and 40-60 % humidity. Mice were allowed free access to irradiated standard rodent diet (Tecklad 2914C) and sterilized water. Animals were acclimated for at least 5 days prior to tumor implantation with a tumor cell suspension.
(§2) The cell line used are: • 501mel • IGR-37 • SK-Mel-28 • WM-266-4 • LOX-IMVI • 501mel^Vemur
(§3) In xenograft studies with cell lines: • Tumour volume was calculated using the equation […], where a: length (longest diameter) and b: width (shortest diameter) were measured in mm by using digital caliper (Fowler Sylvac, S235PAT). Tumour dimensions and body weights were recorded 2-3 times per week starting from the first day of treatment. • When tumors reached ca. 150-250 mm^3, tumour bearing animals (N = 8-10/group) were randomly allocated into the treatment groups, based on body weight and tumour measurements by using NewLab Oncology Software (version 2.25.06.00). • Comparison between median tumour volume of treated and placebo groups was used for evaluation of the antitumoural efficacy. • Animals were euthanized when their tumours reached ca. 1,500 mm^3 and/or severe necrosis was seen.
(§4) Treatments producing >20 % lethality and/or 20% net body weight loss were considered toxic.
(§5) In these experiments, PM14 and Compound IA, as well as placebo, were intravenously administered once per week for 3 consecutive weeks, on days 0, 7 and 14, whenever it was possible.
Table 6. Tumour volume evaluation in Sk-mel-28 melanoma xenografts with PM14 and Compound IA and placebo.

MM074 melanospheres [3] = assay: Melanosphere apoptosis (AnnexinV-APC / propidium iodide); format: cell-based, human; conditions: 72h
Method: (§6) MM074 proliferative/differentiated cell line were seeded (5×10^4 cells) in ultra-low attachment hydrogel-layered 96 well plates in KO DMEM medium supplemented with 20% KSR, AANE, 2 mM Glutamax, Penicillin/Streptomycin and 100 uM Beta-mercaptoethanol. To allow for melanosphere formation, cells were left to grow for 4 days before drug treatment.
For apoptosis assays with 3D-grown melanoma cells, TrypLe Select 10x reagent (Gibco) was used to dissociate melanospheres to obtain single-cell suspensions. These cells were incubated with AnnexinV-APC (Biolegend) and Propidium Iodide (PI, Biolegend). With bivariant dot plots, it was distinguished between viable (AnnexinV-/PI-), early apoptotic (AnnexinV+/PI-), late apoptotic (AnnexinV+/PI+) and necrotic cells (AnnexinV-/PI+).

MM117 = assay: Cell viability assay (PrestoBlue), 72h; conditions: Homo sapiens
Method: as §8, §9, §10

[4] = tested on: 501mel melanoma xenografts; conditions: 1.2 mg/kg intravenous
Method: as §1, §2, §3, §4, §5
Table 4. Tumour volume evaluation in 501mel melanoma xenografts with PM14 and Compound IA and placebo.

melanoma cells [5] = assay: Apoptosis by flow cytometry (AnnexinV-APC); format: cell-based, human; conditions: IC50 concentrations, Annexin V-APC
Method: (§7) After 48h of incubation, cells were rinsed and incubated with AnnexinV-APC (BD Biosciences). Cell proliferation and apoptosis were detected on a BD LSRFortessaTM Flow Cytometer. Data were analyzed with FlowJo software. To define slow proliferating or apoptotic cells: it was considered that slow proliferating cells represented the 30% of cells with the highest concentration of CellTrace Violet signal in the DMSO control. […] For apoptotic cells, it was considered the 20% of cells with the highest signal of AnnexinV-APC in the DMSO control.

MM074^VemuR = assay: Cell viability assay (PrestoBlue), 72h; conditions: Homo sapiens
Method: Cells were grown at 37°C in 5% CO2 (10% for Hermes 3A) and were regularly checked for mycoplasma contamination. MM patient-derived short-term melanoma cultures (MM011, MM074, MM117, MM029, MM047, MM099) were grown in HAM-F10 (Gibco, Invitrogen) supplemented with 10% Fetal Calf Serum (FCS), 25 mM HEPES, 5.2 mM GLUTAMAX and penicillin-streptomycin. Melanoma cell lines 501mel and SKmel28 were grown in RPMI w/o HEPES (Gibco, Invitrogen) supplemented with 10% FCS and gentamycin. Vemurafenib-resistant cells (501melVemuR and MM074VemuR) were additionally supplemented with 1.5 µM of vemurafenib. Melanoma IGR cell lines (IGR37 and IGR39) were grown in RPMI w/o HEPES (Gibco, Invitrogen) supplemented with 15% FCS and gentamycin.
as §9, §10

MM099 = assay: Cell viability assay (PrestoBlue), 72h; conditions: Homo sapiens
Method: Cells were grown at 37°C in 5% CO2 (10% for Hermes 3A) and were regularly checked for mycoplasma contamination. […] Melanoma IGR cell lines (IGR37 and IGR39) were grown in RPMI w/o HEPES (Gibco, Invitrogen) supplemented with 15% FCS and gentamycin.
as §9, §10

MM074 melanospheres [6] = assay: Melanosphere viability (CellTiterGlo); format: cell-based, human; conditions: 72h, doses equivalent to 5×IC50
Method: as §6
To analyze melanosphere viability after drug treatment, cells were treated with CellTiterGlo reagent (Promega) according to the manufacturer's instructions. Luminescence signals were measured with a Centro XS LB 960 microplate reader (Berthold).

melanoma cells [7] = assay: Cell proliferation by CellTrace Violet flow cytometry; format: cell-based, human; conditions: IC50 concentrations, compared to DMSO
Method: as §7

MM011 = assay: Cell viability assay (PrestoBlue), 72h; conditions: Homo sapiens
Method: as §8, §9, §10

## COc1c(C)cc2c(c1O)[C@@H]1[C@@H]3[C@@H]4SC[C@]5(N[C@H](CO)Cc6c5oc5ccccc65)C(=O)OC[C@@H](c5c6c(c(C)c(OC(C)=O)c54)OCO6)N3[C@@H](O)[C@H](C2)N1C [Compound IA]
Melanoma cells 501mel
  cell cycle progression: notable blockade
[1]
  colony formation (number of colonies): significant impact
501mel
  IC50: 1.74 nM
MM074
  IC50: 3.81 nM
[2]; days 0, 7 and 14, day 0
  Median Tumour Volume: 152.3 mm^3
[2]; days 0, 7 and 14, day 2
  Median Tumour Volume: 179.8 mm^3
[2]; days 0, 7 and 14, day 4
  Median Tumour Volume: 232.7 mm^3
[2]; days 0, 7 and 14, day 7
  Median Tumour Volume: 302 mm^3
[2]; days 0, 7 and 14, day 9
  Median Tumour Volume: 397.8 mm^3
[2]; days 0, 7 and 14, day 11
  Median Tumour Volume: 476.6 mm^3
[2]; days 0, 7 and 14, day 14
  Median Tumour Volume: 551.1 mm^3
[2]; days 0, 7 and 14, day 16
  Median Tumour Volume: 585.8 mm^3
[2]; days 0, 7 and 14, day 18
  Median Tumour Volume: 676.6 mm^3
[2]; days 0, 7 and 14, day 21
  Median Tumour Volume: 748.7 mm^3
[2]; days 0, 7 and 14, day 23
  Median Tumour Volume: 866.2 mm^3
[2]; days 0, 7 and 14, day 25
  Median Tumour Volume: 906.6 mm^3
[2]; days 0, 7 and 14, day 28
  Median Tumour Volume: 1,203.1 mm^3
[2]; days 0, 7 and 14, day 32
  Median Tumour Volume: 1,331.3 mm^3
[2]; days 0, 7 and 14, day 35
  Median Tumour Volume: 1,593.1 mm^3
MM074 melanospheres [3]
  late apoptotic cells positive for Annexin V and propidium iodide: substantial population of late apoptotic cells
MM117
  IC50: 1.16 nM
[4]; days 0, 7 and 14, day 0
  Median Tumour Volume: 158.5 mm^3
[4]; days 0, 7 and 14, day 3
  Median Tumour Volume: 208.3 mm^3
[4]; days 0, 7 and 14, day 5
  Median Tumour Volume: 279.8 mm^3
[4]; days 0, 7 and 14, day 7
  Median Tumour Volume: 328.5 mm^3
[4]; days 0, 7 and 14, day 10
  Median Tumour Volume: 455.2 mm^3
[4]; days 0, 7 and 14, day 12
  Median Tumour Volume: 614.1 mm^3
[4]; days 0, 7 and 14, day 14
  Median Tumour Volume: 749.8 mm^3
[4]; days 0, 7 and 14, day 17
  Median Tumour Volume: 913 mm^3
[4]; days 0, 7 and 14, day 19
  Median Tumour Volume: 1,233 mm^3
[4]; days 0, 7 and 14, day 21
  Median Tumour Volume: 1,341.4 mm^3
[4]; days 0, 7 and 14, day 24
  Median Tumour Volume: 1,581.4 mm^3
Melanoma cells [5]
  apoptosis: induction of apoptosis
MM074^VemuR
  IC50: 3.08 nM
MM099
  IC50: 1.85 nM
MM074 melanospheres [6]
  cell viability in 3D culture: significant cytotoxic effects
Melanoma cells [7]
  melanoma cell proliferation: significant inhibition
MM011
  IC50: 1.44 nM

## COc1c(C)cc2c(c1O)[C@@H]1[C@@H]3[C@@H]4SC[C@]5(N[C@H](CO)Cc6c5[nH]c5ccccc65)C(=O)OC[C@@H](c5c6c(c(C)c(OC(C)=O)c54)OCO6)N3[C@@H](O)[C@H](C2)N1C [PM14, ecubectedin]
Melanoma cells 501mel
  cell cycle progression: notable blockade
[1]
  colony formation (number of colonies): significant impact
501mel
  IC50: 1.25 nM
MM074
  IC50: 1.15 nM
[2]; days 0, 7 and 14, day 0
  Median Tumour Volume: 152.8 mm^3
[2]; days 0, 7 and 14, day 2
  Median Tumour Volume: 184.4 mm^3
[2]; days 0, 7 and 14, day 4
  Median Tumour Volume: 235.4 mm^3
[2]; days 0, 7 and 14, day 7
  Median Tumour Volume: 326.2 mm^3
[2]; days 0, 7 and 14, day 9
  Median Tumour Volume: 401.5 mm^3
[2]; days 0, 7 and 14, day 11
  Median Tumour Volume: 510.6 mm^3
[2]; days 0, 7 and 14, day 14
  Median Tumour Volume: 632.6 mm^3
[2]; days 0, 7 and 14, day 16
  Median Tumour Volume: 671.9 mm^3
[2]; days 0, 7 and 14, day 18
  Median Tumour Volume: 822.8 mm^3
[2]; days 0, 7 and 14, day 21
  Median Tumour Volume: 884.4 mm^3
[2]; days 0, 7 and 14, day 23
  Median Tumour Volume: 1,012.5 mm^3
[2]; days 0, 7 and 14, day 25
  Median Tumour Volume: 1,204.2 mm^3
[2]; days 0, 7 and 14, day 28
  Median Tumour Volume: 1,516.7 mm^3
MM074 melanospheres [3]
  late apoptotic cells positive for Annexin V and propidium iodide: substantial population of late apoptotic cells
MM117
  IC50: 0.72 nM
[4]; days 0, 7 and 14, day 0
  Median Tumour Volume: 158.8 mm^3
[4]; days 0, 7 and 14, day 3
  Median Tumour Volume: 215.5 mm^3
[4]; days 0, 7 and 14, day 5
  Median Tumour Volume: 252.3 mm^3
[4]; days 0, 7 and 14, day 7
  Median Tumour Volume: 372.7 mm^3
[4]; days 0, 7 and 14, day 10
  Median Tumour Volume: 503.6 mm^3
[4]; days 0, 7 and 14, day 12
  Median Tumour Volume: 599.4 mm^3
[4]; days 0, 7 and 14, day 14
  Median Tumour Volume: 797.2 mm^3
[4]; days 0, 7 and 14, day 17
  Median Tumour Volume: 950 mm^3
[4]; days 0, 7 and 14, day 19
  Median Tumour Volume: 1,113.5 mm^3
[4]; days 0, 7 and 14, day 21
  Median Tumour Volume: 1,309.8 mm^3
[4]; days 0, 7 and 14, day 24
  Median Tumour Volume: 1,530.7 mm^3
Melanoma cells [5]
  apoptosis: induction of apoptosis
MM074^VemuR
  IC50: 1.63 nM
MM099
  IC50: 1.41 nM
MM074 melanospheres [6]
  cell viability in 3D culture: significant cytotoxic effects
Melanoma cells [7]
  melanoma cell proliferation: significant inhibition
MM011
  IC50: 1.07 nM
